Measurements taken from PMC6002460, “Pharmacological evaluation of new constituents of “Spice”: synthetic cannabinoids based on indole, indazole, benzimidazole and carbazole scaffolds” (Forensic Toxicology, 2018).
Like-named read-outs stand apart in the source and are kept apart here.

What was measured:
[1] = biological target: T1, human GPR55 (Homo sapiens, UniProt Q9Y2T6); test: β-Arrestin PathHunter assay, recombinant CHO cells expressing GPR55; format: cell-based; settings: for Human GPR55 % activation: agonist mode; for Human GPR55 % activation / Human GPR55 % inhibition: value in parentheses; for Human GPR55 % inhibition: antagonist mode versus LPI 1 µM
T1 construct: host or cells: CHO cells
Experimental: (§1) β-Arrestin assays were performed in recombinant CHO cells expressing either the human GPR18 or the human GPR55 as described before using the β-galactosidase enzyme fragment complementation technology (β-arrestin PathHunter™ assay; DiscoverX, Fremont, CA, USA).
(§2) The orphan receptors GPR18 and GPR55 can interact with certain natural and synthetic cannabinoids. […] Therefore, we investigated the new series of indole, indazole, benzimidazole and carbazole-derived structures in β-arrestin assays at GPR18 and GPR55 (Table 2). […] For the lipophilic substitutions, the following rank order of potency was observed: ethyl > methyl > chloro > fluoro. Therefore, it can be concluded that a lipophilic substitution in position 4 of the naphthyl residue was a requirement for GPR55 inhibition.

[2] = biological target: T2, human CB1 receptor (Homo sapiens, UniProt P21554); test: biochemical; format: binding; settings: [3H]CP55,940 0.1 nM, CHO cell membranes; read-out: Ki ± SEM Human CB1
T2 construct: expressed in transfected cells; host or cells: CHO cells (membrane preparations)

[3] = biological target: CB1 receptor; parameters: method as in Buchler et al. [37]; settings: versus 0.5 nM [3H]CP55,940; ref Buchler et al. [37]; cited from earlier work
[4] = biological target: T3, human CB2 receptor (Homo sapiens, UniProt P34972); test: biochemical; format: binding; settings: [3H]CP55,940 0.1 nM, CHO cell membranes; read-out: Ki ± SEM Human CB2
T3 construct: expressed in transfected cells; host or cells: CHO cells (membrane preparations)

[5] = biological target: T4, human GPR18 (Homo sapiens, UniProt Q14330); test: β-Arrestin PathHunter assay, recombinant CHO cells expressing GPR18; format: cell-based; settings: for Human GPR18 % activation: agonist mode; for Human GPR18 % activation / Human GPR18 % inhibition: value in parentheses; for Human GPR18 % inhibition: antagonist mode
T4 construct: host or cells: CHO cells
T4 sequence (Q14330 1-331): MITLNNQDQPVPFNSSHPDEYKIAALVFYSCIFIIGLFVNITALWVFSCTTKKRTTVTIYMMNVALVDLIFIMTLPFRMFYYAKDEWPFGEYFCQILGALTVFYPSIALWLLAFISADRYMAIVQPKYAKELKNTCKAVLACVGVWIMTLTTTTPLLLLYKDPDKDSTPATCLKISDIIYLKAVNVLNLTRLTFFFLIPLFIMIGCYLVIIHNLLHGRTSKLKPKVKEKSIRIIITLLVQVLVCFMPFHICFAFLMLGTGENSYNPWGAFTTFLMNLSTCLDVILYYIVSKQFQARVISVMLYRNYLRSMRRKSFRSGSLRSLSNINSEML
Experimental: as §1, §2

[6] = biological target: CB2 receptor; parameters: method as in Bowden et al. [43]; settings: HTRF cAMP accumulation; ref Bowden et al. [43]; cited from earlier work
[7] = biological target: CB1 receptor; settings: membrane potential assay; ref Longworth et al. [51]; cited from earlier work
[8] = biological target: CB2 receptor; settings: membrane potential assay; ref Longworth et al. [51]; cited from earlier work
[9] = biological target: CB1 receptor; parameters: method as in Bowden et al. [43]; settings: HTRF cAMP accumulation; ref Bowden et al. [43]; cited from earlier work
[10] = system: CB1 receptor; settings: cited from earlier work
[11] = biological target: CB2 receptor; settings: cited from earlier work

T1 sequence (Q9Y2T6 whole entry): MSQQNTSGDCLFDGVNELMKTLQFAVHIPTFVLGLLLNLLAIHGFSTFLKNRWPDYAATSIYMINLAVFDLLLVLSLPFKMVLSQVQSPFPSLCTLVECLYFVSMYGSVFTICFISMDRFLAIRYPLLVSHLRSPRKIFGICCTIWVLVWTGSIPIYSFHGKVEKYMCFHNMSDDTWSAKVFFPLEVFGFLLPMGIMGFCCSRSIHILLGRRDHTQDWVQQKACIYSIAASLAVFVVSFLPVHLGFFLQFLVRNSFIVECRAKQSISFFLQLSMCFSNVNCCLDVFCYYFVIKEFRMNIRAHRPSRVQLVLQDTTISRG
T2 sequence (P21554 whole entry): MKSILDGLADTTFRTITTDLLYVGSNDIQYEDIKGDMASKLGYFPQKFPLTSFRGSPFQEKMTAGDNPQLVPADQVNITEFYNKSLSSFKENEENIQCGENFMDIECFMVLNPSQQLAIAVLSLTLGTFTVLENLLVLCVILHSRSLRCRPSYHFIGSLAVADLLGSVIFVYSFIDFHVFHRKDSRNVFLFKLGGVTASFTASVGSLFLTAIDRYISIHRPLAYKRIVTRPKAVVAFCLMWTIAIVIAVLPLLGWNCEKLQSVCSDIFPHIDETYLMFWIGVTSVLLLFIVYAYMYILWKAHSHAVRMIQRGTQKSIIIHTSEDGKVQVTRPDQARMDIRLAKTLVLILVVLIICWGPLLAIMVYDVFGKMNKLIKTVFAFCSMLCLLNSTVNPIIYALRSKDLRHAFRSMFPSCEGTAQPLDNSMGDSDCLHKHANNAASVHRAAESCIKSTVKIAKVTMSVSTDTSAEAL
T3 sequence (P34972 whole entry): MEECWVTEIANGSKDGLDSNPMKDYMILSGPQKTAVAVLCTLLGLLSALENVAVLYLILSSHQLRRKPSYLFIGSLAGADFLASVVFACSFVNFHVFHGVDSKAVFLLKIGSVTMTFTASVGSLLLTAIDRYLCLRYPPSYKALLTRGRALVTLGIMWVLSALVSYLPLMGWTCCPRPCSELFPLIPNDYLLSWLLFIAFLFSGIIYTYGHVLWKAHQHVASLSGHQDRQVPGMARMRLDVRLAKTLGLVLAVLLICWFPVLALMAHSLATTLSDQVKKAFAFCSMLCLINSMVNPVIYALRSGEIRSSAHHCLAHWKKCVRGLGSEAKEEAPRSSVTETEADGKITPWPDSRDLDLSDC

Row | Compound | EC50 [1] [µM] | IC50 [1] [µM] | Human GPR55 % activation [1] [%] | Human GPR55 % inhibition [1] [%] | Ki [2] [nM] | Ki [4] [nM] | EC50 [5] [µM] | IC50 [5] [µM] | Human GPR18 % activation [5] [%] | Human GPR18 % inhibition [5] [%] | EC50 [6] [nM] | function at CB2 (in words) [11] | also measured
1 | NC(=O)[C@H](Cc1ccccc1)NC(=O)c1nn(CC2CCCCC2)c2ccccc12 [compound 30] | > 10 | > 10 | 11 | 9 | 9.81 ± 4.56 | 4.39 ± 0.59 | > 10 | ~10 | 5 | 57 | – | – | Ki [3]: 47.5 nM
2 | CCCCCn1cc(C(=O)NC(C)(C)c2ccccc2)c2ccccc21 [compound 31, Cumyl-PICA] | > 10 | > 10 | 11 | 3 | 3.27 ± 0.32 | 24 ± 8.8 | > 10 | > 10 | 19 | – | 13 | – | EC50 [7]: 4.2 nM; EC50 [8]: 58.2 nM
3 | CC(C)(NC(=O)c1nn(CC2CCOCC2)c2ccccc12)c1ccccc1 [compound 33] | > 10 | > 10 | 11 | 7 | 1.23 ± 0.2 | 1.38 ± 0.86 | > 10 | > 10 | 11 | 9 | 0.59 | – | EC50 [9]: 0.1 nM
4 | COc1ccc(C(=O)c2c(C)n(CCN3CCOCC3)c3cc(I)ccc23)cc1 [compound 43, AM-630] | – | – | – | – | – | – | – | – | – | – | – | antagonist | function at CB1 (in words) [10]: partial agonist; Ki [11]: 31.2 ± 12.4 nM
5 | Cc1ccc(Cn2nc(C(=O)N[C@@H]3C(C)(C)[C@@H]4CC[C@@]3(C)C4)cc2-c2ccc(Cl)c(C)c2)cc1 [compound 44, SR-144,528] | – | – | – | – | – | – | – | – | – | – | – | antagonist | Ki [10]: 437 ± 33 nM
6 | CC1=CC[C@@H]2[C@@H](C1)c1c(O)cc(C(C)(C)CCCCCCBr)cc1OC2(C)C [compound 45, AM11542] | – | – | – | – | – | – | – | – | – | – | – | – | Ki ([10]; co-crystallized agonist): 0.11 nM
